Calls of active or inactive are those of the source.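 How the source made its calls: active means compounds giving half or more protection of infected cells from virus-caused growth loss, again on retest; inactive means the rest.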 Where a SMILES comes first, the peptide text is derived from it. [ ]: non-standard residue; d: D form. Phe(4-Cl) = N[CH](Cc1ccc(Cl)cc1)C(=O)O; 3Pal = N[CH](Cc1cccnc1)C(=O)O
Tested on: CEM cells HIV-1 protection, formazan growth assay
Assay: NCI AIDS Antiviral Assay
Details: for IC50: measured here: growth of uninfected CEM cells
In short: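 Steps: treat uninfected and HIV-1-infected human CEM cells at five drug levels; quantify growth by soluble formazan; retest any compound reaching 50% protection; classify actives from the retest.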

Structure (SMILES) | EC50 [µM] | IC50 [µM] | outcome
COC(=O)c1ccccc1CC1Cc2ccc3c(c2C1)CCC3 (stereo not drawn) | > 200 | 91.2 | –
CCCCCC1C(=O)N2C=C(c3ccccc3)c3ccccc3N2C1=O (stereo not drawn) | – | – | inactive
O=C(COc1ccc(Cl)cc1)c1ccccc1 | > 1000 | > 1000 | –
CCC1=NC(C(F)(F)F)(C(F)(F)F)N=C(N2CCOCC2)O1 | > 200 | > 200 | –
CC(C)(C)C1CCC2c3c([nH]c4ncccc34)C3C(=O)N(c4ccccc4)C(=O)C3C2C1 (stereo not drawn) | > 1.78 | > 1.78 | –
CCSSC1(C)C(=O)N2CCCC2C(=O)N1C (stereo not drawn) | > 200 | 11.5 | –
CC[C@@]1(OP(=O)(O)O)C(=O)OCc2c1cc1n(c2=O)Cc2cc3ccccc3nc2-1 | > 10 | 0.0263 | –
CSC(=Nc1cc2ccccc2c2ccccc12)NC#N | > 34.7 | 26.9 | –
Cc1cc(CO)c(O)c(CN(CCO)CCO)c1 | > 200 | 20.4 | –
CCOC(=O)/C(=C\c1ccc(OC)cc1)P(=O)(OCC)OCC | > 380 | 77.6 | –
COC(=O)c1ccccc1C1CN=NC12Cc1ccc(C)c(C)c1C2=O (stereo not drawn) | > 200 | 37.2 | –
CC(=O)NC(CCCCNC(=O)OCc1ccccc1)C(=O)O (stereo not drawn) | > 776 | > 776 | –
CC(C)(C)C(=O)/C=C/c1cccc(F)c1 | – | – | inactive
O=[N+]([O-])c1cccc(C=NC23CC4CC(CC(C4)C2)C3)c1 | > 66.1 | > 66.1 | –
OCCSCC/C(=N\N=C(/CCSCCO)c1ccccc1)c1ccccc1 | > 87.1 | 34.7 | –
O=C1C2CC3OC3CC2C(=O)N1CCN1C(=O)C2CC3OC3CC2C1=O (stereo not drawn) | > 10.5 | > 10.5 | –
Nc1ccc(S(=O)(=O)Nc2nccs2)cc1N=Nc1ccccc1[N+](=O)[O-] | > 200 | > 200 | –

Structure (SMILES) | EC50 [µM] | IC50 [µM] | outcome
COc1cc(C)c2c(c1C=O)Oc1c(c(C)c(O)c3c1C(O)OC3=O)OC2=O (stereo not drawn) | > 93.3 | 53.7 | –
N#CC(/C(=N/NC(N)=S)C(=O)Nc1cccc(Cl)c1)c1ccccc1 (stereo not drawn) | > 19.5 | 10.5 | –
O=NN/C(=C1\Nc2ccc([N+](=O)[O-])cc2NC1=O)C(O)c1ccc([N+](=O)[O-])cc1 (stereo not drawn) | > 234 | 191 | –
C/C(=N/OC(=O)N(C)C)c1cc(Cl)ccc1Cl | > 200 | 135 | –
C[N+]1(C2=C([O-])C(F)(F)C2=O)CCOCC1 | > 200 | > 200 | –
CC(=O)NC(Cc1ccc(Cl)cc1)C(=O)NC(Cc1ccc(Cl)cc1)C(=O)NC(Cc1cccnc1)C(=O)NC(CO)C(=O)NC(Cc1ccc(O)cc1)C(=O)NC(CCCN=C(N)N)C(=O)NC(CC(C)C)C(=O)NC(CCCN=C(N)N)C(=O)N1CCCC1C(=O)NC(C)C(=O)O (stereo not drawn) (Ac-[Phe(4-Cl)][Phe(4-Cl)][3Pal]SYRLRPA-OH; configuration not given here) | > 17 | > 17 | –
COc1cc(-c2ccc(Nc3ccccc3C(=O)O)c(OC)c2)ccc1Nc1ccccc1C(=O)O | > 200 | 0.692 | –
Cc1cn(C2CC3C(COC(CC[Se]c4ccccc4)N3O)O2)c(=O)[nH]c1=O (stereo not drawn) | 24 | 158 | –
c1cc(CSP234N5CCN2CCN3CCN4CC5)cc(CSP234N5CCN2CCN3CCN4CC5)c1 | > 100 | 25.1 | –
Nc1ccc2c(c1)S(=O)(=O)c1cc(N)ccc1-2 | > 200 | > 200 | –
N#CC(c1ccccn1)c1nc2ccccc2[nH]1 (stereo not drawn) | > 8.51 | > 8.51 | –
[N-]=[N+]=NC[C@H]1OCO[C@H](CN=[N+]=[N-])[C@@H](OCCOCCCl)[C@@H]1OCCOCCCl | > 200 | 148 | –
CC(=O)OC(C#N)CC(C)(C)/[N+]([O-])=[N+](\[O-])C(C)(C)CC(C#N)OC(C)=O (stereo not drawn) | > 20 | 3.63 | –
O=S1Cc2ccccc2CS1 (stereo not drawn) | – | – | inactive
CSc1c(C(=O)Nc2ccc(Cl)cc2)c(N)[nH]c(=O)c1C#N | > 200 | 1.2 | –
O=C1CSC(c2ccccc2[N+](=O)[O-])N1c1ccc(-n2c(-c3ccccc3)nc3ccccc3c2=O)cc1 (stereo not drawn) | > 200 | 126 | –
